The results in this text go back to patent US20260226084A1, “DUAL RAF AND TUBULIN INHIBITORS AND METHODS OF USE THEREOF” (Deciphera Pharmaceuticals, LLC, priority 2023, published 2026).

Read-outs that look alike come from different tables or passages of the source.

The test system of assay [1] is HPAF-II cells. Nature of the assay: HPAF-II Cell Proliferation Assay. Type of assay: cell-based. Conditions: HPAF-II cells, Table 2, read-out: Inhibition of cell proliferation in HPAF-II (IC50 class). The method, then:
(§1) HPAF-II cells (catalog #CRL-1997) are obtained from the American Type Culture Collect (ATCC, Manassas, VA). Briefly, cells are grown in Minimum Essential Media supplemented with 10% characterized fetal bovine serum (Invitrogen, Carlsbad, CA) and 1% Penicillin/Streptomycin/L-Glutamine at 37° C., 5% CO2, and 95% humidity. Cells are expanded until reaching 70-95% confluency at which point they are sub-cultured or harvested for assay use. A serial dilution of test compound is dispensed into a 384-well black clear bottom plate in triplicate. 750 cells are added per well in 50 μL complete growth medium in the 384-well plate. Plates are incubated for 115 to 120 hours at 37° C., 5% CO2, and 95% humidity. At the end of the incubation, 40 μL of a 440 μM solution of resazurin (Sigma, St. Louis, MO) in PBS is added to each well of the plate and plates are incubated for an additional 18 to 24 hours at 37° C., 5% CO2, and 95% humidity. Plates are read on a Synergy2 or equivalent reader (Biotek, Winooski, VT) using an excitation of 540 nm and an emission of 600 nm. Data is analyzed using Prism software (Graphpad, San Diego, CA) to calculate IC50 values.

The test system of assay [2] is MiaPaca-2 cells. The assay is described as follows: MiaPaca-2 Cell Proliferation Assay. The assay is classed as cell-based. Conditions: Table 2, read-out: Inhibition of cell proliferation in MiaPaca-2 (IC50 class). Here is the method:
Miapaca-2 cells (catalog #CRL-1420) are obtained from the American Type Culture Collect (ATTC, Manassas, VA). Briefly, cells were grown in DMVEM supplemented with 10 characterized fetal bovine serum (Invitrogen, Carlsbad, CA), 2.5% New Zealand sourced horse serum and 1 Penicillin/Streptomycin/L-Glutamine at 37° C., 5 CO2, and 95% humidity. Cells are expanded until reaching 70-95% confluency at which point they are sub-cultured or harvested for assay use. A serial dilution of test compound is dispensed into a 96-well black clear bottom plate in triplicate. Three thousand cells are added per well in 200 μL complete growth medium in the 96-well plate. Plates are incubated for 67 to 72 h at 37° C., 5% CO2, and 95% humidity. At the end of the incubation, 40 μL of a 440 μM solution of resazurin (Sigma, St. Louis, MO) in PBS is added to each well of the plate and plates are incubated for an additional 5 to 6 h at 37° C., 5% CO2, and 95% humidity. Plates are read on a Synergy2 or equivalent reader (Biotek, Winooski VT) using an excitation of 540 nm and an emission of 600 nm. Data is analyzed using Prism software (Graphpad, San Diego, CA) to calculate IC50 values.

Assay [3] relates to Pa16c cells. The assay is described as follows: Pa16c Cell Proliferation Assay. The assay is classed as cell-based. Conditions: Table 2, read-out: Inhibition of cell proliferation in Pa16c (IC50 class). Here is the method: as §1, with “Pa16c” for “HPAF-II”, “cells” for “cells (catalog #CRL-1997)”, “Dr. Channing Der, University of North Carolina at Chapel Hill.” for “the American Type Culture Collect (ATCC, Manassas, VA).”, “Dulbecco's Modified Eagle Medium” for “Minimum Essential Media”, “67” for “115”, “72 h” for “120 hours”

The subject of assay [4] is HCT-116 cells. The assay is described as follows: HCT-116 Cell Proliferation Assay. Conditions: Table 2, read-out: Inhibition of cell proliferation in HCT-116 (IC50 class). Type of assay: cell-based. Here is the method:
HCT-116 cells (catalog #CCL-247) are obtained from the American Type Culture Collect (ATCC, Manassas, VA). Briefly, cells are grown in McCoy's 5A supplemented with 10% characterized fetal bovine serum (Invitrogen, Carlsbad, CA) and 1% Penicillin/Streptomycin/L-Glutamine at 37° C., 5% CO2, and 95% humidity. Cells are expanded until reaching 70-95% confluency at which point they are subcultured or harvested for assay use. A serial dilution of test compound is dispensed into a 384-well black clear bottom plate in triplicate. 375 cells are added per well in 50 μL complete growth medium in the 384-well plate. Plates are incubated for 67 to 72 hours at 37° C., 5% CO2, and 95% humidity. At the end of the incubation, 40 μL of a […] solution of resazurin (Sigma, St. Louis, MO) in PBS is added to each well of the plate and plates are incubated for an additional 4 to 5 h at 37° C., 5% CO2, and 95% humidity. Plates are read on a Synergy2 or equivalent reader (Biotek, Winooski, VT) using an excitation of 540 nm and an emission of 600 nm. Data is analyzed using Prism software (Graphpad, San Diego, CA) to calculate IC50 values.

The target in assay [5] is T1, B-Raf kinase (SEQ ID NO: 1) (Homo sapiens, UniProt P15056).
T1 construct: GST (N); purchased Sigma
Nature of the assay: Biochemical Assay for B-Raf (coupled pyruvate kinase/lactate dehydrogenase assay). Conditions: 1 mM ATP; read-out: BRAF (inhibition of biochemical activity, IC50).

Assay [6] concerns the target T2, C-Raf kinase (SEQ ID NO: 2) (Homo sapiens, UniProt P04049, Y340D/Y341D).
T2 construct: C-Raf residues 306-end; Y340D, Y341D with; GST (N); purchased Sigma
Nature of the assay: Biochemical Assay for C-Raf (coupled pyruvate kinase/lactate dehydrogenase assay). Conditions: 1 mM ATP; read-out: CRAF (inhibition of biochemical activity, IC50).

The mark [7] stands for this setting: Homo sapiens, MIA PaCa-2, MiaPaca-2 cells.
Where [8] appears, read: Homo sapiens, HCT-116, HCT-116 cells.

T2 sequence (P04049 307-648 Y340D/Y341D): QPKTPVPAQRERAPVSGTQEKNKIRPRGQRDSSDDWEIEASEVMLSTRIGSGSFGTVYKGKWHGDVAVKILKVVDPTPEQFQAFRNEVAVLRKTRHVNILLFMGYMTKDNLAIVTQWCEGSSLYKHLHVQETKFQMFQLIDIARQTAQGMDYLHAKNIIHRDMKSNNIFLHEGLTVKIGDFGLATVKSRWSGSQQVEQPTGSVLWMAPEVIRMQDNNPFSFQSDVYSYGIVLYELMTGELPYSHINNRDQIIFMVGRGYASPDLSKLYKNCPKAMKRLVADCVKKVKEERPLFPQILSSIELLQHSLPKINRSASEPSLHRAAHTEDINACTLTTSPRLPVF
T1 sequence (P15056 416-766): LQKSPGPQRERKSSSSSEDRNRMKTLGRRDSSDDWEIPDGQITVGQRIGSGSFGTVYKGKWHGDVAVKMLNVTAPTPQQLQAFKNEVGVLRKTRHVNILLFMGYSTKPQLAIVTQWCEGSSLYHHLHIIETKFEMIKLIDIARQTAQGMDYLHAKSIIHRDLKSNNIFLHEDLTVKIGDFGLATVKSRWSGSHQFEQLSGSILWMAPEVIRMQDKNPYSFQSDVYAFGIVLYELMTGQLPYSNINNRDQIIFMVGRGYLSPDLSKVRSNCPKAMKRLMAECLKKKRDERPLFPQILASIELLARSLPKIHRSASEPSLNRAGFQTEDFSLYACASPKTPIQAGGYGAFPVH

Regarding `Cc1ccc(NC(=O)c2cc(C(F)(F)F)cnn2)cc1-c1cc(NCCO)nc(-c2ccnc(NC(=O)C3CC3)c2)c1` [Example 113], the IC50 in assay [1] (Homo sapiens, HPAF-II) is less than 100 nM; in assay [2] (setting [7]), less than 100 nM; in assay [3], less than 100 nM; in assay [4] (setting [8]) it was less than 100 nM; in assay [5], less than 100 nM; in assay [6], less than 100 nM.

As to `Cc1cc(-c2cc(NC(=O)c3cncc(C(C)(F)F)c3)ccc2C)cc(-c2ccnc(NC(=O)C3CC3)c2)n1` [Example 16], the IC50 was 1000 to 10000 nM in assay [1] (Homo sapiens, HPAF-II); 500 to 1000 nM in assay [2] (setting [7]); 1000 to 10000 nM in assay [3]; 100 to 500 nM in assay [4] (setting [8]); less than 100 nM in assay [5]; less than 100 nM in assay [6].

Turning to `Cc1ccc(NC(=O)c2cc(C(F)(F)F)cnn2)cc1-c1ccnc(-c2cncn2C)c1` [Example 135], the IC50 in assay [1] (Homo sapiens, HPAF-II) was 100 to 500 nM; in assay [2] (setting [7]), 100 to 500 nM; in assay [3] it was 100 to 500 nM; in assay [4] (setting [8]) it was 100 to 500 nM; in assay [5], less than 100 nM; in assay [6], less than 100 nM.

On to `CNCC(=O)Nc1cc(-c2cc(-c3cc(NC(=O)c4cc(C5CC5)cnn4)ccc3C)ccn2)ccn1` [Example 107], for which the IC50 in assay [1] (Homo sapiens, HPAF-II) is 100 to 500 nM; in assay [2] (setting [7]) it was 100 to 500 nM; in assay [3], 100 to 500 nM; in assay [4] (setting [8]) it was 100 to 500 nM; in assay [5], less than 100 nM; in assay [6], less than 100 nM.

As for `Cc1ccc(NC(=O)c2ccc(C(F)(F)F)nc2)cc1-c1cncc(-c2cc(NC(=O)C3CC3)ncn2)c1` [Example 75], the IC50 in assay [1] (Homo sapiens, HPAF-II) is 1000 to 10000 nM; in assay [2] (setting [7]) it was 1000 to 10000 nM; in assay [3], 1000 to 10000 nM; in assay [4] (setting [8]), 1000 to 10000 nM; in assay [5] it was less than 100 nM; in assay [6] it was less than 100 nM.

For `Cc1cc(-c2cc(NC(=O)c3cncc(C(F)(F)F)c3)ccc2C)cc(-c2ccnc(NC(=O)C3CC3)c2)n1` [Example 81], the IC50 is 1000 to 10000 nM in assay [1]; 1000 to 10000 nM in assay [2] (MiaPaca-2 cells); 1000 to 10000 nM in assay [3]; 100 to 500 nM in assay [4] (HCT-116 cells); less than 100 nM in assay [5]; less than 100 nM in assay [6].

Consider `CONc1cc(-c2cc(-c3cc(NC(=O)c4cc(C(F)(F)F)cnn4)ccc3C)ccn2)ccn1` [Example 128, N-(3-(2′-(methoxyamino)-[2,4′-bipyridin]-4-yl)-4-methylphenyl)-5-(trifluoromethyl)pyridazine-3-carboxamide], for which the IC50 in assay [1] (Homo sapiens, HPAF-II) was in the range of 100 to 500 nM; in assay [2] (setting [7]), 100 to 500 nM; in assay [3] it was 500 to 1000 nM; in assay [4] (setting [8]), 100 to 500 nM; in assay [5], 100 to 500 nM; in assay [6], 100 to 500 nM.

With `Cc1ccc(NC(=O)c2ccc(C(F)(F)F)nn2)cc1-c1cncc(-c2cc(NC(=O)C3CC3)ncn2)c1` [Example 23], the IC50 is 1000 to 10000 nM in assay [1] (Homo sapiens, HPAF-II); 1000 to 10000 nM in assay [2] (setting [7]); 1000 to 10000 nM in assay [3]; 1000 to 10000 nM in assay [4] (setting [8]); less than 100 nM in assay [5]; less than 100 nM in assay [6].

In the case of `CC(=O)Nc1cc(-c2cncc(-c3cc(NC(=O)c4ccc(C(F)F)nc4)ccc3C)n2)ccn1` [Example 26], the IC50 is 500 to 1000 nM in assay [1] (Homo sapiens, HPAF-II); 100 to 500 nM in assay [2] (setting [7]); 500 to 1000 nM in assay [3]; 100 to 500 nM in assay [4] (setting [8]); 100 to 500 nM in assay [5]; 100 to 500 nM in assay [6].

On to `Cc1ccc(NC(=O)c2ccc(C(F)(F)F)nn2)cc1-c1ccnc(-c2ccnc(NC(=O)C3CC3)c2)c1` [Example 19], for which the IC50 in assay [1] (Homo sapiens, HPAF-II) was 100 to 500 nM; in assay [2] (setting [7]) it was 100 to 500 nM; in assay [3] it was less than 100 nM; in assay [4] (setting [8]), 100 to 500 nM; in assay [5], 100 to 500 nM; in assay [6], less than 100 nM.

On to `Cc1ccc(NC(=O)c2cc(C(F)(F)F)cnn2)cc1-c1ccnc(-c2ccnc(NC(=O)CN(C)C)c2)c1` [Example 52], for which the IC50 was 100 to 500 nM in assay [1] (Homo sapiens, HPAF-II); 100 to 500 nM in assay [2] (setting [7]); 500 to 1000 nM in assay [3]; 100 to 500 nM in assay [4] (setting [8]); less than 100 nM in assay [5]; less than 100 nM in assay [6].

In the case of `Cc1ccc(NC(=O)c2cc(C3CC3)cnn2)cc1-c1nc(NCCO)cc(-c2ccnc(NC(=O)C3CC3)c2)n1` [Example 102], the IC50 in assay [1] (Homo sapiens, HPAF-II) was 1000 to 10000 nM; in assay [2] (setting [7]) it was 1000 to 10000 nM; in assay [3], 1000 to 10000 nM; in assay [4] (setting [8]), 500 to 1000 nM; in assay [5], less than 100 nM; in assay [6] it was less than 100 nM.

In the case of `Cc1ccc(NC(=O)c2cc(N)cnn2)cc1-c1ccnc(-c2ccnc(NC(=O)C3CC3)c2)c1` [Example 99], the IC50 in assay [1] (Homo sapiens, HPAF-II) lay in the range of 1000 to 10000 nM; in assay [2] (setting [7]), 1000 to 10000 nM; in assay [3], 1000 to 10000 nM; in assay [4] (setting [8]), 1000 to 10000 nM; in assay [5] it was 500 to 1000 nM; in assay [6], 100 to 500 nM.

As for `Cc1ccc(NC(=O)c2cc(Br)cnn2)cc1-c1ccnc(-c2ccnc(NC(=O)C3CC3)c2)c1` [Example 130], the IC50 is 1000 to 10000 nM in assay [1] (Homo sapiens, HPAF-II); 100 to 500 nM in assay [2] (setting [7]); 500 to 1000 nM in assay [3]; 500 to 1000 nM in assay [4] (setting [8]); less than 100 nM in assay [5]; less than 100 nM in assay [6].

For the compound `Cc1ccc(NC(=O)c2cnc(C(F)(F)F)nc2)cc1-c1ccnc(-c2cn[nH]c2)c1` [Example 126], the IC50 in assay [1] (Homo sapiens, HPAF-II) is 100 to 500 nM; in assay [2] (setting [7]), less than 100 nM; in assay [3] it was 100 to 500 nM; in assay [4] (setting [8]), less than 100 nM; in assay [5], 1000 to 10000 nM; in assay [6], 1000 to 10000 nM.

For `Cc1ccc(NC(=O)c2cc(C3CC3)cnn2)cc1-c1cc(NCCO)nc(-c2ccnc(NC(=O)C3CC3)c2)n1` [Example 103], the IC50 was 500 to 1000 nM in assay [1] (Homo sapiens, HPAF-II); 500 to 1000 nM in assay [2] (setting [7]); 1000 to 10000 nM in assay [3]; less than 100 nM in assay [4] (setting [8]); less than 100 nM in assay [5]; less than 100 nM in assay [6].
